Activity calls are given as the source filed them. The rule behind the calls is not given here.
Legend:
SH-SY5Y [1] = test: Neuroprotection against 6-OHDA-induced cytotoxicity in human SH-SY5Y cells assessed as increase in cell viability upto 50 uM incubated for 2 hr before 6-OHDA challenge and measured after 24 hrs by MTT assay; type: functional, cell-based; details: dose microM <=50, time 2.0 hrs
SH-SY5Y [2] = test: Neuroprotection against 6-OHDA-induced oxidative stress in human SH-SY5Y cells assessed as cell protection at 10 uM preincubated for 2 hr before 6-OHDA challenge and measured after 24 hrs by MTT assay; type: functional; details: time 26 hrs
[3] = Acute toxicity in ICR mouse assessed as abnormalities in kidney at 500 mg/kg, po administered […] 14 days by HE staining based assay; type: organism-based; details: in vivo, 336 h, time 14 day
[4] = Acute toxicity in ICR mouse assessed as abnormal behaviors at 500 mg/kg, po administered as single dose measured after 14 days; type: organism-based; details: in vivo, 336 h, time 14 day
[5] = Acute toxicity in ICR mouse assessed as abnormalities in heart at 500 mg/kg, po administered […] 14 days by HE staining based assay; type: organism-based; details: in vivo, 336 h, time 14 day
SH-SY5Y [6] = test: Neuroprotection against H202-induced cytotoxicity in human SH-SY5Y cells assessed as increase in cell viability at 100 uM incubated for 2 hr before H202 challenge and measured after 24 hrs by MTT assay; type: functional, cell-based; details: time 26.0 hrs
SH-SY5Y [7] = test: Neuroprotection against H202-induced human SH-SY5Y cell damage assessed as decrease in ROS accumulation at 10 uM incubated for 2 hr before H202 challenge and measured after 24 hrs by DCFDA staining based fluorescence microscopy; type: functional; details: time 26.0 hrs
SH-SY5Y [8] = test: Neuroprotection against H202-induced cytotoxicity in human SH-SY5Y cells assessed as increase in cell viability upto 50 uM incubated for 2 hr before H202 challenge and measured after 24 hrs by MTT assay; type: functional, cell-based; details: dose microM <=50, time 2.0 hrs
SH-SY5Y [9] = test: Neuroprotection against Abeta-induced cytotoxicity in human SH-SY5Y cells assessed as increase in cell viability upto 50 uM incubated for 2 hr before Abeta(1-42) challenge and measured after 24 hrs by MTT assay; type: functional, cell-based; details: dose microM <=50, time 2.0 hrs
Mus musculus [10] = test: Improvement in learning and spatial memory in icv infused amyloid beta (1 to 42)-induced ICR mouse model of Alzheimer's disease assessed as improved target quadrant exploration time at 4 to 20 mg/kg, po administered daily for 7 days starting from 7 days post surgery by Morris water maze test; type: functional, organism-based; details: dose 4-20 mg/kg, time 7.0 day
SH-SY5Y [11] = test: Neuroprotection against 6-OHDA-induced cytotoxicity in human SH-SY5Y cells assessed as increase in cell viability at 100 uM incubated for 2 hr before 6-OHDA challenge and measured after 24 hrs by MTT assay; type: functional, cell-based; details: time 26.0 hrs
[12] = Acute toxicity in ICR mouse assessed as body weight loss at 500 mg/kg, po administered as single dose measured after 14 days; type: organism-based; details: in vivo, 336 h, time 14 day
Mus musculus [13] = test: Neuroprotection against icv infused amyloid beta (1 to 42)-induced ICR mouse model of Alzheimer's disease assessed as rescue of pyknotic nucleus in hippocampal at to 4 to 20 mg/kg, po administered daily for 7 days by HE staining; type: functional, organism-based; details: dose 4-20 mg/kg, time 7.0 day
SH-SY5Y [14] = test: Neuroprotection against Abeta-induced oxidative stress in human SH-SY5Y cells assessed as cell protection at 10 uM incubated for 2 hr before Abeta(1-42) challenge and measured after 24 hrs by MTT assay; type: functional; details: time 26 hrs
SH-SY5Y [15] = test: Cytotoxicity against human SH-SY5Y cells assessed as reduction in cell viability measured after 24 hrs by MTT assay; type: cell-based
SH-SY5Y [16] = test: Neuroprotection against H202-induced human SH-SY5Y cell damage assessed as decrease in ROS accumulation at 50 uM incubated for 2 hr before H202 challenge and measured after 24 hrs by DCFDA staining based fluorescence microscopy; type: functional; details: time 26.0 hrs
[17] = Acute toxicity in ICR mouse assessed as abnormalities in liver at 500 mg/kg, po administered […] 14 days by HE staining based assay; type: organism-based; details: in vivo, 336 h, time 14 day
Mus musculus [18] = test: Neuroprotection against icv infused amyloid beta (1 to 42)-induced ICR mouse model of Alzheimer's disease assessed as rescue of decrease neuronal cells in hippocampal at to 4 to 20 mg/kg, po administered daily for 7 days by HE staining; type: functional, organism-based; details: dose 4-20 mg/kg, time 7.0 day
[19] = Acute toxicity in ICR mouse assessed as mortality at 500 mg/kg, po administered as single dose measured after 14 days; type: organism-based; details: in vivo, 336 h, time 14 day
[20] = Acute toxicity in ICR mouse assessed as abnormalities in spleen at 500 mg/kg, po administered […] 14 days by HE staining based assay; type: organism-based; details: in vivo, 336 h, time 14 day
SH-SY5Y [21] = test: Neuroprotection against Abeta-induced cytotoxicity in human SH-SY5Y cells assessed as increase in cell viability at 100 uM incubated for 2 hr before Abeta(1-42) challenge and measured after 24 hrs by MTT assay; type: functional, cell-based
SH-SY5Y [22] = test: Neuroprotection against H202-induced oxidative stress in human SH-SY5Y cells assessed as cell protection at 10 uM preincubated for 2 hr before H202 challenge and measured after 24 hrs by MTT assay; type: functional
[23] = Acute toxicity in ICR mouse assessed as abnormalities in lung at 500 mg/kg, po administered […] 14 days by HE staining based assay; type: organism-based; details: in vivo, 336 h, time 14 day
SH-SY5Y [24] = test: Neuroprotection against Abeta-induced oxidative stress in human SH-SY5Y cells assessed as cell protection at 1 mM incubated for 2 hr before Abeta(1-42) challenge and measured after 24 hrs by MTT assay; type: functional; details: time 26 hrs
SH-SY5Y [25] = test: Neuroprotection against H202-induced oxidative stress in human SH-SY5Y cells assessed as cell protection at 1 mM preincubated for 2 hr before H202 challenge and measured after 24 hrs by MTT assay; type: functional; details: time 26 hrs
SH-SY5Y [26] = test: Neuroprotection against 6-OHDA-induced oxidative stress in human SH-SY5Y cells assessed as cell protection at 1 mM preincubated for 2 hr before 6-OHDA challenge and measured after 24 hrs by MTT assay; type: functional; details: time 26 hrs

COc1ccc2[nH]cc(CCNC(=O)Oc3ccc4c(c3)CC[C@@H]3[C@@H]4CC[C@]4(C)[C@@H]5[C@H](C[C@@H]34)O[C@]3(CC[C@@H](C)CO3)[C@H]5C)c2c1
Activity (SH-SY5Y [1]): Active | Activity (SH-SY5Y [2]): 38.4% | Activity [3]: Non-Toxic | Activity [4]: Non-Toxic | Activity [5]: Non-Toxic | Activity (SH-SY5Y [6]): inactive | Activity (SH-SY5Y [7]): Active | Activity (SH-SY5Y [8]): Active | Activity (SH-SY5Y [9]): Active | Activity (Mus musculus [10]): Active | Activity (SH-SY5Y [11]): inactive | Activity [12]: Non-Toxic | Activity (Mus musculus [13]): Active | Activity (SH-SY5Y [14]): 54.4% | Activity (SH-SY5Y [15]): Non-Toxic | Activity (SH-SY5Y [16]): inactive | Activity [17]: Non-Toxic | Activity (Mus musculus [18]): Active | Activity [19]: Non-Toxic | Activity [20]: Non-Toxic | Activity (SH-SY5Y [21]): inactive | Activity (SH-SY5Y [22]): 52.9% | Activity [23]: Non-Toxic

CC(=O)N[C@@H](CS)C(=O)O [ACETYLCYSTEINE]
Activity (SH-SY5Y [24]): 67.6% | Activity (SH-SY5Y [25]): 84.73% | Activity (SH-SY5Y [26]): 83.59%

From ChEMBL document CHEMBL4819077, “Design, synthesis, and biological evaluation of diosgenin-indole derivatives as dual-functional agents for the treatment of Alzheimer's disease” (Eur J Med Chem, 2021)
